≈ marks a conversion by molar mass, not a printed value. Calls of active or inactive are those of the source. The rule behind the calls is not given here. Residues, ends and D or L forms follow the SMILES beside them. ξ: configuration not given here. *: point of attachment. Lipoyl(6ξ) = O=C(CCCCC1CCSS1)*
Legend:
Staphylococcus aureus [1] = test: Antimicrobial activity against Staphylococcus aureus ATCC 29213 by measuring turbidity at 540 nm OD after 16 hrs; assay type: functional
Staphylococcus aureus [2] = test: Antimicrobial activity against Staphylococcus aureus ATCC 29213 assessed as inhibition of visible growth incubated for 24 hrs; assay type: functional
[3] = tested on: Staphylococcus epidermidis; test: Antimicrobial activity against Staphylococcus epidermidis ATCC 14990 by measuring turbidity after 16 hrs; assay type: functional
[4] = tested on: Staphylococcus epidermidis; test: Antimicrobial activity against Staphylococcus epidermidis ATCC 14990 assessed as inhibition of visible growth incubated for 24 hrs; assay type: functional
Escherichia coli [5] = test: Antimicrobial activity against Escherichia coli ATCC 25922 by measuring turbidity after 16 hrs; assay type: functional
Escherichia coli [6] = test: Antimicrobial activity against Escherichia coli ATCC 25922 assessed as inhibition of visible growth incubated for 24 hrs; assay type: functional
Pseudomonas aeruginosa [7] = test: Antimicrobial activity against Pseudomonas aeruginosa ATCC 27853 by measuring turbidity after 16 hrs; assay type: functional
Pseudomonas aeruginosa [8] = test: Antimicrobial activity against Pseudomonas aeruginosa ATCC 27853 assessed as inhibition of visible growth incubated for 24 hrs; assay type: functional
Staphylococcus aureus [9] = test: Antimicrobial activity against methicillin-resistant Staphylococcus aureus ATCC 43300 by measuring turbidity after 16 hrs; assay type: functional
Staphylococcus aureus [10] = test: Antimicrobial activity against methicillin-resistant Staphylococcus aureus ATCC 43300 assessed as inhibition of visible growth incubated for 24 hrs; assay type: functional
Staphylococcus aureus [11] = test: (§1) Bactericidal activity against planktonic phase of Staphylococcus aureus ATCC 29213 assessed as log reduction in bacterial colony forming units at 2 ug/ml incubated for 15 mins followed by plating on agar plate and measured after overnight incubation by time-kill kinetic assay relative to control; assay type: functional; design: scale not given: the % may be the effect or the level left; conditions: dose 2 µg/ml, 0.25 h
Staphylococcus aureus [12] = test: as §1, with “of methicillin-resistant” for “of”, “43300” for “29213”, “8” for “2”; assay type: functional; design: scale not given: the % may be the effect or the level left; conditions: dose 8 µg/ml, 0.25 h
[13] = Hemolytic activity against Erythrocyte (unknown origin) at 4 ug/ml measured after 4 hrs by microplate reader analysis relative to control; assay type: ADME, cell-based; conditions: human, erythrocytes, at 4 µg/mL, read-out: Activity
[14] = Hemolytic activity against Erythrocyte (unknown origin) at 16 ug/ml measured after 4 hrs by microplate reader analysis relative to control; assay type: ADME, cell-based; conditions: human, erythrocytes, at 16 µg/mL, read-out: Activity
[15] = Cytotoxicity against mouse L929 cells assessed as cell viability at 8 or 16 ug/ml after 24 hrs by MTT assay relative to control; assay type: cell-based; conditions: dose 8-16 µg/ml, read-out: Activity
[16] = Cytotoxicity against mouse L929 cells assessed as cell viability at 32 ug/ml after 24 hrs by MTT assay relative to control; assay type: cell-based; conditions: at 32 µg/mL, read-out: Activity
[17] = Cytotoxicity against mouse L929 cells assessed as cell viability at 64 ug/ml after 24 hrs by MTT assay relative to control; assay type: cell-based; conditions: at 64 µg/mL, read-out: Activity
[18] = Cytotoxicity against mouse L929 cells assessed as cell viability at 128 ug/ml after 24 hrs by MTT assay relative to control; assay type: cell-based; conditions: at 128 µg/mL, read-out: Activity
Cell membrane [19] = test: Induction of cytoplasmic membrane depolarization in Kcl - treated Escherichia coli DC2 assessed as increase in fluorescence intensity for a period of 600 sec by diSC3-5 dye based fluorescence microplate reader assay
Cell membrane [20] = test: Induction of outer membrane permeabilization in Escherichia coli ATCC 25922 assessed as increase in fluorescence intensity at 4 ug/ml after 100 sec by NPN-dye based assay; assay type: subcellular; conditions: dose 4.0 µg/ml
Staphylococcus aureus [21] = test: Antibiofilm activity against 48 hrs pre-formed biofilm of Staphylococcus aureus ATCC 29213 assessed as reduction in biofilm viability at 64 ug/ml after 5 hrs relative to control; assay type: functional; conditions: dose 64 µg/ml
Staphylococcus aureus [22] = test: Antibiofilm activity against 48 hrs preformed biofilm of methicillin resistant Staphylococcus aureus ATCC 43300 assessed as reduction in biofilm viability at 128 ug/ml after 5 hrs relative to control; assay type: functional; conditions: dose 128 µg/ml
Staphylococcus aureus [23] = test: Antibiofilm activity against Staphylococcus aureus ATCC 29213 assessed as inhibition of biofilm formation at 64 ug/ml after 48 hrs by crystal violet staining based assay relative to control; assay type: functional; design: scale not given: the % may be the effect or the level left; conditions: dose 64 µg/ml
Staphylococcus aureus [24] = test: Antibiofilm activity against methicillin resistant Staphylococcus aureus ATCC 43300 assessed as inhibition of biofilm formation at 64 ug/ml after 48 hrs by crystal violet staining based assay relative to control; assay type: functional; design: scale not given: the % may be the effect or the level left; conditions: dose 64 µg/ml
Cell membrane [25] = test: Induction of cell membrane damage in methicillin-resistant Staphylococcus aureus ATCC 43300 assessed as leakage of cellular components at 16 ug/ml after 30 mins by transmission electron microscopy; assay type: subcellular; conditions: dose 16.0 µg/ml
Cell membrane [26] = test: Induction of cell membrane damage in Escherichia coli ATCC 25922 assessed as leakage of cellular components at 16 ug/ml after 30 mins by transmission electron microscopy; assay type: subcellular; conditions: dose 16.0 µg/ml
Staphylococcus aureus [27] = test: Antibiofilm activity against Staphylococcus aureus ATCC 29213 assessed as dead bacteria at 64 ug/ml incubated for 5 hrs by live/dead staining based confocal laser scanning microscopy; assay type: functional, organism-based; conditions: dose 64.0 µg/ml
Staphylococcus aureus [28] = test: Antibiofilm activity against methicillin-resistant Staphylococcus aureus ATCC 43300 assessed as dead bacteria at 64 ug/ml incubated for 5 hrs by live/dead staining based confocal laser scanning microscopy; assay type: functional, organism-based; conditions: dose 64.0 µg/ml

Compound	MIC (Staphylococcus aureus [1])	MBC (Staphylococcus aureus [2])	MIC [3]	MBC [4]	MIC (Escherichia coli [5])	MBC (Escherichia coli [6])	MIC (Pseudomonas aeruginosa [7])	MBC (Pseudomonas aeruginosa [8])	MIC (Staphylococcus aureus [9])	MBC (Staphylococcus aureus [10])	hemolysis at 4 h, 4 ug/ml [13]	hemolysis at 4 h, 16 ug/ml [14]	viability at 24 h [15]	viability at 24 h, 128 ug/ml [18]	Activity (Cell membrane [19])	Activity (Staphylococcus aureus [21])	Activity (Staphylococcus aureus [22])	Activity (Cell membrane [25])	Activity (Cell membrane [26])	further results
CC[C@H](C)[C@H](NC(=O)[C@H](CCCNC(=N)N)NC(=O)CCCCC1CCSS1)C(=O)N[C@@H](Cc1c[nH]c2ccccc12)C(=O)N[C@H](C(=O)N[C@H](C(=O)N[C@@H](Cc1c[nH]c2ccccc12)C(=O)N[C@@H](CCCNC(=N)N)C(=O)N[C@@H](CCCNC(=N)N)C(N)=O)[C@@H](C)CC)C(C)C (some centres not stated) ({Lipoyl(6ξ)}-RIWVIWRR-NH2)	1 µg/mL (≈ 0.729 µM)	2 µg/mL (≈ 1.46 µM)	8 µg/mL (≈ 5.83 µM)	8 µg/mL (≈ 5.83 µM)	8 µg/mL (≈ 5.83 µM)	8 µg/mL (≈ 5.83 µM)	8 µg/mL (≈ 5.83 µM)	8 µg/mL (≈ 5.83 µM)	4 µg/mL (≈ 2.92 µM)	8 µg/mL (≈ 5.83 µM)	0.97%	4.58%	100%	80.1%	Dose-dependent effect	60%	36.4%	Active	Active	Activity (Staphylococcus aureus [11]): 99%; Activity (Staphylococcus aureus [12]): 99%; viability at 24 h, 32 ug/ml [16]: 89.4%; viability at 24 h, 64 ug/ml [17]: 84.9%; Activity (Cell membrane [20]): Active; Activity (Staphylococcus aureus [23]): 12%; Activity (Staphylococcus aureus [24]): 25.6%; Activity (Staphylococcus aureus [27]): Active; Activity (Staphylococcus aureus [28]): Active
H-RIWVIWRR-NH2	2 µg/mL	4 µg/mL	4 µg/mL	4 µg/mL	4 µg/mL	4 µg/mL	4 µg/mL	4 µg/mL	8 µg/mL	16 µg/mL	1.21%	3.47%	100%	85.7%	Dose-dependent effect	45%	40.2%	Active	Active	–
